{"source": "paper PMC9775191", "about": "“A Subset Screen of the Compounds Australia Scaffold Library Identifies 7-Acylaminodibenzoxazepinones as Potent and Selective Hits for Anti-Giardia Drug Discovery” (Biomedicines, 2022)", "data": [{"system": "G. duodenalis BRIS/91/HEPU/1279", "test": "Primary Giardia screen at 10 µM (live-cell imaging, automated counting)", "type": "cell-based, Giardia duodenalis", "conditions": "48 h, first singlicate assay", "how_it_was_run": "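Singlicate, 10 μM final, 0.2% DMSO; sealed chambers, 3% O2/5% CO2/N2. Counts by live-cell imaging at 24 h and 48 h. % growth vs vehicle, media background subtracted; Z' per plate.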", "units": {"% Inhibition n=1 48h": "%"}, "values": [{"smiles": "O=C(NCCCN1CCCC1)c1ccc2c(c1)N(CC(=O)N1CCCC1)C(=O)CO2", "note": "[SN00791845]", "% Inhibition n=1 48h": 0.0}, {"smiles": "C=CCNC(=O)CCN1CCN(Cc2ccccc2)C1=O", "note": "[SN00791850]", "% Inhibition n=1 48h": 0.0}, {"smiles": "Cc1sc2c(c1C)C(c1ccc(F)cc1)=NCC(=O)N2CC(=O)Nc1ccc(Cl)cc1", "note": "[SN00791866]", "% Inhibition n=1 48h": 0.0}, {"smiles": "CCN(CC)C(=O)CN1C(=O)CN=C(c2ccc(OC)cc2)c2c1sc1c2CCCC1", "note": "[SN00791881]", "% Inhibition n=1 48h": 0.0}, {"smiles": "CC(=O)N1c2ccc(S(=O)(=O)N3CCCCC3)cc2CC1C(=O)N1CCCCC1", "note": "(centres unmarked) [SN00791893]", "% Inhibition n=1 48h": 0.0}, {"smiles": "COc1ccc(-c2cnc(C)o2)cc1S(=O)(=O)Nc1ccc(C)cc1", "note": "[SN00792030]", "% Inhibition n=1 48h": 22.0}, {"smiles": "O=S(=O)(c1ccc(-c2cnc(C3CC3)o2)cc1)N1CCCCC1", "note": "[SN00792043]", "% Inhibition n=1 48h": 8.3}, {"smiles": "CCCNc1nc(N2CCN(CC)CC2)c2cnn(C)c2n1", "note": "[SN00792083]", "% Inhibition n=1 48h": 10.1}, {"smiles": "CCOC(=O)c1ccccc1NC(=O)NC(c1ccccc1)c1nnc(-c2ccccc2)o1", "note": "(centres unmarked) [SN00792113]", "% Inhibition n=1 48h": 0.0}, {"smiles": "O=C(CS(=O)(=O)c1ccc2c(c1)S(=O)(=O)N=CN2)Nc1ccccc1", "note": "[SN00792172]", "% Inhibition n=1 48h": 15.6}, {"smiles": "CC(C)(C)c1ccc(C(=O)N2CCC3(CC2)N=C(c2cccc(Cl)c2)C(=O)N3)cc1", "note": "[SN00792200]", "% Inhibition n=1 48h": 32.1}, {"smiles": "COc1ccc(CN2CCC3(CC2)N=C(c2ccc(C)cc2)C(=O)N3)cc1", "note": "[SN00792212]", "% Inhibition n=1 48h": 16.2}, {"smiles": "Cc1ccc(S(=O)(=O)Nc2ccc3c(c2)N(C(=O)c2ccco2)CCC3)cc1C", "note": "[SN00792238]", "% Inhibition n=1 48h": 12.2}, {"smiles": "CCC(=O)N1CCCc2ccc(NS(=O)(=O)c3ccc(F)c(C)c3)cc21", "note": "[SN00792263]", "% Inhibition n=1 48h": 17.5}, {"smiles": "O=C(NCc1cccc(Br)c1)c1ncoc1-c1cccs1", "note": "[SN00792278]", "% Inhibition n=1 48h": 6.4}, {"smiles": "O=C(NCc1ccccc1Cl)c1cc2n(n1)CCCN(Cc1ccc(F)cc1)C2=O", "note": "[SN00792328]", "% Inhibition n=1 48h": 0.0}, {"smiles": "CCOC(=O)CNC(=O)N1Cc2c(C)nn(-c3ccccc3)c2-n2cccc2C1c1cccc(F)c1", "note": "(centres unmarked) [SN00792341]", "% Inhibition n=1 48h": 8.0}, {"smiles": "Cn1cc(-c2cc3n(n2)CCC(=O)N3CC(=O)N2CCC3(CC2)OCCO3)c2ccccc21", "note": "[SN00792412]", "% Inhibition n=1 48h": 10.8}, {"smiles": "Cc1cccc(CN2CCC3(CC2)N=C(c2ccc(C)c(C)c2)C(=O)N3)c1", "note": "[SN00792562]", "% Inhibition n=1 48h": 12.3}, {"smiles": "CCn1cc(C(=O)NCc2ccccc2)c(=O)c2ccc(C)nc21", "note": "[SN00792575]", "% Inhibition n=1 48h": 6.1}, {"smiles": "CCOc1ccc(S(=O)(=O)Nc2cccc(-c3ccc(OC)nn3)c2)cc1", "note": "[SN00792604]", "% Inhibition n=1 48h": 10.8}, {"smiles": "Cc1ccc(NS(=O)(=O)c2cn(C)c(C)n2)c(Br)c1", "note": "[SN00792660]", "% Inhibition n=1 48h": 25.8}, {"smiles": "CC1Cc2ccccc2N1C(=O)c1cc(-c2cccnc2)[nH]n1", "note": "(centres unmarked) [SN00792679]", "% Inhibition n=1 48h": 19.0}, {"smiles": "CCOC(=O)Cc1ccc(NC(=O)N2CCC3(CC2)N=C(c2ccc(F)cc2)C(=O)N3)cc1", "note": "[SN00792712]", "% Inhibition n=1 48h": 14.3}, {"smiles": "Cc1cccc(C2=NC3(CCN(C(=O)NC4CCCCC4)CC3)NC2=O)c1", "note": "[SN00792717]", "% Inhibition n=1 48h": 13.8}, {"smiles": "CCC(=O)N1CCC2(CC1)N=C(c1cccc(OC)c1)C(=O)N2", "note": "[SN00792731]", "% Inhibition n=1 48h": 18.9}, {"smiles": "CN1CCN(CCNC(=O)CN2C(=O)C3CCCCN3c3ccc(C(=O)N4CCCC4)cc32)CC1", "note": "(centres unmarked) [SN00792767]", "% Inhibition n=1 48h": 13.0}, {"smiles": "O=S(=O)(c1cccc(F)c1)N1CC(OCc2cccc(F)c2)C1", "note": "[SN00792818]", "% Inhibition n=1 48h": 10.0}, {"smiles": "CSc1ccc(CCNC(=O)c2ccc3c(c2)nc2n3CCOC2)cc1", "note": "[SN00792852]", "% Inhibition n=1 48h": 12.8}, {"smiles": "CCN(CC)S(=O)(=O)c1ccc2c(c1)cc(C(=O)NC1CCCC1)n2C", "note": "[SN00792862]", "% Inhibition n=1 48h": 0.0}, {"smiles": "CN(C)S(=O)(=O)c1ccc2c(c1)cc(C(=O)NCCCN1CCc3ccccc3C1)n2C", "note": "[SN00792874]", "% Inhibition n=1 48h": 0.0}, {"smiles": "Cc1ccc(CNC(=O)Cn2c(C)cc(C)c(-c3nc(-c4ccccc4)no3)c2=O)cc1", "note": "[SN00792891]", "% Inhibition n=1 48h": 0.0}]}]}
